The values below come from ChEMBL document CHEMBL3861981 (J Med Chem, 2016).

The nature of series [1]: Cardiotoxicity in rabbit heart assessed as change in sinoatrial node recovery time at 10 uM perfused for 60 mins measured every 10 mins during perfusion by electrophysiology method relative to control. The settings on record: 1 h. In kind it is toxicity, tissue-based, Oryctolagus cuniculus.
A short description of series [2]: AUC in cynomolgus monkey plasma at 10 mg/kg administered via oral gavage measured up to 24 hrs post dose by LC/MS/MS analysis. In kind it is ADME, organism-based, Macaca fascicularis. Also on record: dose 10 mg/kg, time < 24 hr, route oral. The settings on record: plasma.
Series [3] in a line: Plasma concentration in rabbit at 30 mg/kg, iv administered as 10 mins infusion measured after 60 mins. In kind it is ADME, organism-based, Oryctolagus cuniculus.
The nature of series [4]: Cardiotoxicity in rabbit heart assessed as change in heart rate at 10 uM perfused for 60 mins measured every 10 mins during perfusion by electrophysiology method relative to control. In kind it is toxicity, tissue-based, Oryctolagus cuniculus. To be noted: 1 h.
A short description of series [5]: Inhibition of recombinant full length HCV genotype 3a S52 NS3/4A protease preincubated for 30 mins followed by substrate addition measured by FRET assay. Also on record: species or system Hepatitis C virus S52.
A short description of series [6]: Inhibition of recombinant full length HCV genotype 6a HK-6A NS3/4A protease preincubated for 30 mins followed by substrate addition measured by FRET assay. Also on record: species or system Hepatitis C virus subtype 6a.
Series [7] is filed under the species Homo sapiens. Briefly: Inhibition of sodium channel (unknown origin) at 10 uM at 4 Hz by patch clamp assay.
Series [8] deals with Hepatitis C virus. Briefly: Antiviral activity against HCV genotype 1b Con1 expressing NS3 protease infected in human Huh7.5 cells assessed as reduction in viral RNA replication by luciferase reporter gene assay. In kind it is functional, cell-based, Hepacivirus hominis. To be noted: genotype 1b Con1, Huh-7.
Series [9] can be described thus: Oral bioavailability in cynomolgus monkey plasma at 10 mg/kg administered via gavage measured up to 24 hrs post dose by LC/MS/MS analysis. To be noted: plasma. In kind it is ADME, organism-based, Macaca fascicularis.
Series [10] is described as follows: Inhibition of recombinant full length HCV genotype 3a S52 NS3 protease in genotype 2a replicon cells by luciferase reporter gene assay. To be noted: Hepatitis C virus. In kind it is cell-based. (In general: In antiviral work, replicon cells carry a viral genome segment that copies itself.)
A short description of series [11]: AUC in Beagle dog plasma at 3 mg/kg administered via oral gavage measured up to 24 hrs post dose by LC/MS/MS analysis. In kind it is ADME, organism-based, Canis lupus familiaris. Also on record: dose 3 mg/kg, time < 24 hr, route oral.
The nature of series [12]: Cytotoxicity against human HeLa cells assessed as decrease in cell viability.
The test system of series [13] is Rattus norvegicus. Briefly: Toxicity in rat at 30 to 300 mg/kg administered as single dose. In kind it is organism-based. To be noted: in vivo.
Series [14] in a line: Cardiotoxicity in dog assessed as prolongation of QTcv interval at 30 to 100 mg/kg administered as single dose by electrophysiology assay. In kind it is toxicity, organism-based, Canis lupus familiaris. The settings on record: in vivo.

In general, AUC refers to the area under the concentration-time curve, a measure of exposure. The term IC50 denotes the concentration that inhibits the measured activity by half. By inhibition is commonly meant the change of the read-out against control, counted positive when it falls. The term EC50 denotes the concentration needed to bring the measured effect to its halfway point. A word on the bioavailability: it is the share of a dose that reaches the circulation, judged against a reference dose that is usually intravenous. In general, CC50 refers to the concentration that lowers cell viability or growth by half.

For the compound `COc1cnc(O[C@@H]2C[C@@H](C(=O)N[C@]3(C(=O)NS(=O)(=O)C4CC4)C[C@H]3C3CC3)N(C(=O)[C@@H](NC(=O)O[C@H](C)C(F)(F)F)C3CCCCC3)C2)c2cc(Cl)ccc12`, the Activity in series [1] is 22%; in series [4], -16%; in series [13] it was “Non-Toxic”; in series [14], “Non-Toxic”. Also, the area under the curve (AUC) at 24 h in [2] came out at 4.4 µM·h; in [11], 8.3 µM·h. In series [3], this compound returned a concentration at 1 h of 253 µM. Also, the IC50 in series [5] is 1400 nM; in series [6], 3.4 nM. In series [7], this compound returned an inhibition of 46.4%. Further, the figures for the half-maximal effective concentration (EC50) in series [8] and in series [10] were 4.5 nM and 1650 nM, respectively. For the same compound, the bioavailability in series [9] was 15.4%. Moreover, the 50% cytotoxic concentration (CC50) in series [12] lay within 8000 to 14000 nM.
